This experiment concerns CEM cells HIV-1 protection, formazan growth assay. The experiment is described as follows: NCI AIDS Antiviral Assay. The settings on record: for IC50: measured here: growth of uninfected CEM cells. In outline:
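Protection of CEM cells against HIV-1 was scored from cell growth (soluble formazan) across five concentrations, with parallel uninfected cells. Lack of protection may reflect toxicity.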

Active and inactive are the calls of the source.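 The calls were made as follows: active = compounds giving half or more protection of infected cells from virus-caused growth loss, again on retest; inactive = the rest.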 Where a SMILES comes first, the peptide text is derived from it.

The EC50 is the concentration giving half of the maximal effect. A word on the IC50: it is the concentration that gives 50% inhibition. A higher IC50 goes with a need for much substance. For the compound `COc1ccc(NC(=S)Nc2cc(C)cc(C)n2)cc1`, the EC50 is more than 200 µM and the IC50 was more than 200 µM.
Take `COC(=O)C1=CC2OC13CC1CCC3(C2=O)C1(C)C` (stereo unspecified): the result was inactive.
On to `O=C(N/N=C/c1cccc2ccccc12)c1cccnc1`, for which the EC50 was more than 200 µM and the IC50 worked out at 112 µM.
For `CCOc1ccccc1NC(=O)CCc1nnc2s/c(=C\CCc3ccccc3)c(=O)n12`, in that order: more than 79.4 µM and more than 79.4 µM.
For `N#C/C(N)=C(\C#N)N=CNc1ccccc1N`, in that order: more than 200 µM and more than 200 µM.
For `CC(=O)OCC1OC(n2c(-c3ccccc3)c(N=Nc3ccc(C)cc3)c(C)c(C#N)c2=S)C(OC(C)=O)C(OC(C)=O)C1OC(C)=O` (stereo unspecified), in that order: 195 µM and more than 200 µM.
With `COC(=O)C1C(=O)C(C(=O)OC)C2(C)C(C(=O)OC)C(=O)C(C(=O)OC)C12` (stereo unspecified), the EC50 is more than 468 µM and the IC50 is more than 468 µM.
Take `O=C(CSc1nnc(-c2ccc(N=Cc3ccc(Cl)cc3)cc2)o1)Nc1cccc(Cl)c1`: the EC50 is more than 74.1 µM and the IC50 was more than 74.1 µM.
For `Cc1occc1C(=S)Nc1ccc(Cl)c(C(=O)OCC2CC2)c1`, the EC50 was 0.0186 µM and the IC50 worked out at 53.7 µM.
Taken in the same sequence, the figures for `COc1nc(C(Cl)(Cl)Cl)c(Cl)c(OC)c1Cl` were more than 41.7 µM and more than 41.7 µM.
`CC12CCC([C@H](C(O)C3CCCCC3)C1=O)C2(C)C` (stereo partly specified): the EC50 was more than 200 µM and the IC50 was 52.5 µM.
For `C=C(c1ccccc1)C1ON(C)CCc2cc(OC)c(OC)cc21` (stereo unspecified), in that order: more than 200 µM and more than 100 µM.
Taken in the same sequence, the figures for `Cc1ccc2nc(N/N=C/c3ccc(C)s3)cc(C)c2c1` were more than 200 µM and 14.5 µM.
For `O=C1C(c2ccc(Cl)cc2)=[N+]([O-])c2ccccc21`, the outcome was inactive.
Consider `O=c1[nH]c(=O)n(C2CC(F)(F)C(CO)O2)cc1COCC(F)(F)F` (stereo unspecified), for which the EC50 was more than 174 µM and the IC50 was more than 174 µM.
As for `COC1OC(COCc2ccc(Cl)cc2)C(OCc2ccc(Cl)cc2)C1N=[N+]=[N-]` (stereo unspecified), the outcome was inactive.
Turning to `CNc1nc(SC)nc2c1S(=O)(=O)N=CN2`, the EC50 was more than 263 µM and the IC50 was more than 263 µM.
For `C=C1CC2(OC1=O)c1ccccc1C=Cc1ccccc12`, the EC50 was more than 26.3 µM and the IC50 was determined as 4.57 µM.
For `S=C1NCCN1C(=S)NC1CCCCC1`, in that order: 22.4 µM and more than 100 µM.
Regarding `COc1cc2c(cc1Oc1c(Oc3c(O)c(OC)cc4c3C(CC(C)C)N(C)CC4)c(OC)cc3c1C(CC(C)C)N(C)CC3)C(CC(C)C)N(C)CC2` (stereo unspecified), the result was inactive.
`CC(NC(=O)CNC(=O)C(N)CO)C(=O)NC(CCC(=O)O)C(=O)NC(CCC(=O)O)C(=O)NC(CO)C(=O)NC(CCCCN)C(=O)NC(CCC(=O)O)C(=O)NC(CCC(N)=O)C(=O)NC(CO)C(=O)N1CCCC1C(=O)NC(CC(N)=O)C(=O)NC(C)C(=O)NC(Cc1cnc[nH]1)C(=O)NC(CO)C(=O)O` (stereo unspecified) (H-SGAEESKEQSPNAHS-OH; configuration not given here): the EC50 was more than 100 µM and the IC50 is more than 100 µM.
On to `CC(=O)OC12C3C4C1C1C2C3C41OC(C)=O` (stereo unspecified), for which the EC50 was more than 200 µM and the IC50 is more than 200 µM.
Consider `C=C1CC(Cn2cc(Br)c(=O)[nH]c2=O)(c2ccc(-c3ccccc3)cc2)OC1=O` (stereo unspecified), for which the EC50 was more than 20 µM and the IC50 worked out at 0.457 µM.
For `CCOC(=O)/C(=C\c1cccc([N+](=O)[O-])c1)[Se]c1ccccc1`, in that order: more than 26.3 µM and 10.7 µM.
Taken in the same sequence, the figures for `CC(=O)c1cc2sc3ccccc3c2[nH]1` were more than 200 µM and more than 200 µM.
For `COc1ccc(/C=C2\CCS(=O)(=O)c3ccccc3C2=O)cc1`, in that order: more than 200 µM and 16.6 µM.
Regarding `CC(NNC(=O)c1ccncc1)c1cccc(C(F)(F)F)c1` (stereo unspecified), the EC50 is more than 200 µM and the IC50 came out at 195 µM.
For `O=C1CC2(CCNCC2)C(=O)N1N1CCCCC1`, in that order: more than 200 µM and more than 200 µM.
For `CCOC(=O)C1=CNN=CC12C(=O)C(C(=O)OCC)CC2C(=O)OCC` (stereo unspecified), in that order: more than 245 µM and more than 245 µM.
Taken in the same sequence, the figures for `CN(C)C(=O)NCCN1CCCCCc2ccccc21` were more than 200 µM and 49 µM.
As for `OCC(O)CC[CH2][Sn]([Br])([c]1ccccc1)[c]1ccccc1` (stereo unspecified), the outcome was inactive.
Turning to `CO/N=C(/C(=O)Nc1c[n+](CC(=O)[O-])cs1)c1csc(N)n1`, the EC50 is more than 145 µM and the IC50 was more than 145 µM.
Take `CCCCC1(C)C=C/C(=C2/C(=O)O/C(=C\C(=O)O)C2=O)O1` (stereo unspecified): the EC50 is more than 851 µM and the IC50 was more than 851 µM.
Turning to `C=CCCNCC/C=C\[Si](C)(C)C`, the EC50 was more than 1260 µM and the IC50 was 1230 µM.
For `CS1(C)=Nc2c([N+](=O)[O-])cc([N+](=O)[O-])cc2S(=O)(=O)N=1`, in that order: more than 112 µM and 58.9 µM.
For `COC1/C=C/OC2(C)Oc3c(C)c(O)c4c(O)c(c(CNCc5ccccc5)c(O)c4c3C2=O)NC(=O)/C(C)=C\C=C\C(C)C(O)C(C)C(O)C(C)C(OC(C)=O)C1C` (stereo unspecified), in that order: more than 200 µM and 1.51 µM.
Consider `c1ccc(-c2c3ccccc3[o+]c3ccccc23)cc1`, for which the EC50 was more than 200 µM and the concentration for half-maximal inhibition (IC50) came to 33.1 µM.
Taken in the same sequence, the figures for `O=C1NC(=O)C(=Cc2cccnc2)C(=O)N1` were more than 200 µM and more than 200 µM.
Taken in the same sequence, the figures for `Cc1cccc(/C=N/NC(=S)NCCc2ccccn2)n1` were more than 200 µM and 20.4 µM.
In the case of `NC(=O)C(c1ccccc1)N1CCOCC1` (stereo unspecified), the EC50 was more than 200 µM and the IC50 is 1.02 µM.
`CCOC(=O)C1=C(C)CC2C(=O)OC(=O)C2C1(C)C` (stereo unspecified): the outcome was inactive.
Consider `CC(C)=CCc1c(-c2ccc(O)cc2O)oc2c3c(cc(O)c2c1=O)OC(C)(C)C=C3`, for which the EC50 is more than 17.4 µM and the IC50 is 13.8 µM.
In the case of `O=C(Nc1c(Cl)cc([N+](=O)[O-])cc1Cl)C(=O)C(C(=O)c1ccncc1)C1OC(=O)c2ccccc21` (stereo unspecified), the result was inactive.
Take `C1=CC2CC1C1C(=C3Sc4ccccc4S3)c3nccnc3C(=C3Sc4ccccc4S3)C21` (stereo unspecified): the EC50 is more than 14.5 µM and the IC50 is more than 14.5 µM.
Regarding `CC1(C)CCc2cc3c(cc2O1)OC(C)(C)C1c2cc(O)c(OCc4ccccc4)cc2OC31` (stereo unspecified), the EC50 is more than 200 µM and the IC50 came out at 61.7 µM.
Taken in the same sequence, the figures for `O=C1C[C@@H]2[C@@H](c3ccccc3)[C@@H]3C(=O)c4ccccc4NC(=O)[C@H]3[C@]2(O)c2ccccc2N1` were 26.9 µM and 30.9 µM.
Taken in the same sequence, the figures for `CC(=O)OCC1OC(n2cc(C(F)(F)F)c(=O)[nH]c2=O)CC1OC(C)=O` (stereo unspecified) were more than 200 µM and 2.45 µM.
Taken in the same sequence, the figures for `Cc1cc([N+](=O)[O-])ccc1N=NC(=O)NNc1ccc([N+](=O)[O-])cc1C` were more than 200 µM and 33.9 µM.
Consider `CC1CCCN2C(=O)CN(CCc3ccccc3)CC(=O)N12` (stereo unspecified), for which the outcome was inactive.
As for `CC(O)C1OC(O)C2OC(C)(C)OC12` (stereo unspecified), the EC50 was more than 200 µM and the IC50 was more than 200 µM.
As to `COc1ccc2nccc3c2c1NC(Cl)=C3`, the EC50 is more than 200 µM and the IC50 was found to be 1.58 µM.
Taken in the same sequence, the figures for `CC(C)=NNc1cnnc2ccc([N+](=O)[O-])cc12` were more than 200 µM and 70.8 µM.
Consider `O=C1NC2(CCN(Cc3ccccc3)CC2)Oc2ccccc21`, for which the EC50 was more than 200 µM and the IC50 is more than 200 µM.
As to `Cc1csc2c(=O)n(C3OC(CO)C(O)C3O)c(=O)[nH]c12` (stereo unspecified), the EC50 is more than 200 µM and the IC50 was more than 200 µM.
As for `CCOC(=O)/C(=C\c1c(C)[nH]c2ccccc12)P(=O)(OCC)OCC`, the EC50 was 69.2 µM and the IC50 stood at 110 µM.
Taken in the same sequence, the figures for `O=C(Nc1ccc(Cl)cc1)P(=O)(O)c1ccccc1` were more than 200 µM and more than 200 µM.
Taken in the same sequence, the figures for `Nc1ccc2c(c1)C(=O)OC2(C(F)(F)F)C(F)(F)F` were more than 200 µM and 93.3 µM.
Take `COC(=O)/C=C(/C=C1/C(C#N)=C(N)N(c2ccc(Cl)cc2)C1(C)/C(=C\C(=O)OC)C(=O)OC)C(=O)OC` (stereo unspecified): the EC50 is more than 200 µM and the IC50 was found to be 8.91 µM.
Taken in the same sequence, the figures for `CN(C)S(=O)(=O)c1cc(Cl)cc(Cc2cc(Cl)cc(S(=O)(=O)N(C)C)c2O)c1O` were more than 74.1 µM and 4.37 µM.
Taken in the same sequence, the figures for `N#CCN1CCCCCc2ccccc21` were more than 200 µM and more than 200 µM.
Taken in the same sequence, the figures for `Nc1nc(Cl)cc(NCC2(CO)CC(O)C2)n1` (stereo unspecified) were more than 200 µM and more than 200 µM.
As for `O=S1(=O)O[C@H]2CCCC[C@@H]2O1`, the EC50 is more than 45.7 µM and the half-inhibitory concentration (IC50) is more than 45.7 µM.
On to `O=C1/C(=C/c2ccco2)N=C2Sc3c(nc[nH]c3=O)N12`, for which the EC50 is more than 200 µM and the IC50 was more than 200 µM.
Regarding `CCN(CC)c1c(C(=O)/C=C/c2ccc(OC)cc2)c(-c2ccccc2)nn(C)c1=O`, the EC50 is more than 9.12 µM and the concentration for half-maximal inhibition (IC50) was more than 9.12 µM.
For `CC(=O)NC(CS)C(=O)NC(CO)C(=O)NC(CO)C(=O)NC(Cc1c[nH]c2ccccc12)C(=O)N1CCCC1C(=O)NC(CO)C(=O)NC(Cc1c[nH]c2ccccc12)C(=O)NC(Cc1c[nH]cn1)C(=O)NC(CO)C(=O)NC(Cc1c[nH]c2ccccc12)C(=O)NCC(=O)NCC(=O)NC(CC(=O)O)C(=O)NC(CCC(N)=O)C(=O)NC(CCCCN)C(=O)NC(Cc1ccccc1)C(=O)NC(CCCNC(=N)N)C(=O)NC(CCCCN)C(N)=O` (stereo unspecified) (Ac-CSSWPSWHSWGGDQKFRK-NH2; configuration not given here), the EC50 is more than 20 µM and the IC50 was more than 20 µM.
For the compound `COC(OC)c1cc2c(cc1C=O)OCO2`, the result was inactive.
Consider `c1cc2nnc1SCCSCCSc1ccc(nn1)SCCSCCS2`, for which the EC50 was more than 200 µM and the IC50 was more than 200 µM.
For the compound `CC(NS(=O)(=O)c1ccc([N+](=O)[O-])cc1)C(=O)O` (stereo unspecified), the result was inactive.

(Values after PubChem BioAssay AID179 (DTP/NCI, 2004).)
